This is an account of results in patent US20250171437A1 (Agios Pharmaceuticals,Inc., priority 2022, published 2025).

Some results are limits rather than exact numbers.

The first experiment deals with T1, human PAH with the R408W mutation (A375 R408W cells) (Homo sapiens, UniProt P00439, R408W).
T1 construct: expressed in transfected cells
T1 sequence (P00439 1-452 R408W): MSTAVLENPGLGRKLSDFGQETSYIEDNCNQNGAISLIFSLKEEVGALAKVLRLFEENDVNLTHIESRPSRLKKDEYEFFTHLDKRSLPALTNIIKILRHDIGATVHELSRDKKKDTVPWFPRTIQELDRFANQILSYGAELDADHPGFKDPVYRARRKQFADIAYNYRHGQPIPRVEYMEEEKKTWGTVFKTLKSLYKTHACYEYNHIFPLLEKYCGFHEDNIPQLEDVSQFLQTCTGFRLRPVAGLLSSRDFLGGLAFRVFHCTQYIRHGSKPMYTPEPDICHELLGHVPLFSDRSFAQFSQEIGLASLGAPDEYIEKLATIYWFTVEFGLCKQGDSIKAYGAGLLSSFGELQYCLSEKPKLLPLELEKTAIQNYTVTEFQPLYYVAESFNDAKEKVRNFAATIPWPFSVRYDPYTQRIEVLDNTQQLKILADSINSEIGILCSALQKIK
Briefly: Cell Based Phenylalanine Flux Assay. Particulars: A375 R408W cells; 24 hrs with compound, then 20 μM sepiapterin and 800 μM 13C9,15N-Phenylalanine for 4 hours; 13C-Tyrosine by LC-MS; average where tested multiple times. A digest of the protocol:
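LC-MS quantitation of 13C-tyrosine in media gave AC50 values. Stable A375 R408W PAH cells were preincubated 24 h with compound, then fed 800 μM labelled Phe plus 20 μM sepiapterin for 4 h. Dose curves were 10-point, tested in duplicate, averaged over repeat runs.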
With `Cc1ccc2nc([C@H]3c4nc[nH]c4CCN3C(=O)c3ocnc3C(F)(F)F)oc2c1` [Example 58, (R)-(4-(6-methylbenzo[d]oxazol-2-yl)-6,7-dihydro-1H-imidazo[4,5-c]pyridin-5(4H)-yl)(4-(trifluoromethyl)oxazol-5-yl)methanone], the AC50 was no more than 500 nM.
Regarding `CC(C)(O)c1nc(C(F)F)c(C(=O)N2CCc3[nH]cnc3[C@H]2c2nc3ccc(F)cc3o2)o1` [Example 187, (S)-(4-(difluoromethyl)-2-(2-hydroxypropan-2-yl)oxazol-5-yl)(4-(6-fluorobenzo[d]oxazol-2-yl)-6,7-dihydro-1H-imidazo[4,5-c]pyridin-5(4H)-yl)methanone], the AC50 was no more than 500 nM.
The same measure, in the same setting: as for `Cn1cnc(-c2nc(C(F)F)c(C(=O)N3CCc4[nH]cnc4[C@@H]3c3nc4cc(F)ccc4o3)o2)c1` [Example 642, (R)-(4-(difluoromethyl)-2-(1-methyl-1H-imidazol-4-yl)oxazol-5-yl)(4-(5-fluorobenzo[d]oxazol-2-yl)-6,7-dihydro-1H-imidazo[4,5-c]pyridin-5(4H)-yl)methanone], the figure is 1000 to 5000 nM; as for `O=C(c1ocnc1C(F)F)N1CCc2[nH]cnc2[C@@H]1c1nc2ccc(F)cc2o1` [Example 164, (R)-(4-(difluoromethyl)oxazol-5-yl)(4-(6-fluorobenzo[d]oxazol-2-yl)-6,7-dihydro-1H-imidazo[4,5-c]pyridin-5(4H)-yl)methanone], 1000 to 5000 nM; as for `COc1ccc(-c2nc(C(F)F)c(C(=O)N3CCc4[nH]cnc4[C@H]3c3nc4cccc(F)c4o3)o2)nc1` [Example 616, (S)-(4-(difluoromethyl)-2-(5-methoxypyridin-2-yl)oxazol-5-yl)(4-(7-fluorobenzo[d]oxazol-2-yl)-6,7-dihydro-1H-imidazo[4,5-c]pyridin-5(4H)-yl)methanone], no more than 500 nM.
Same read-out and setting: next, `CC(C)(O)c1nc(C(F)F)c(C(=O)N2CCc3[nH]cnc3[C@H]2c2nc3c(F)c(F)ccc3o2)o1` [Example 347, (S)-(4-(4,5-difluorobenzo[d]oxazol-2-yl)-6,7-dihydro-1H-imidazo[4,5-c]pyridin-5(4H)-yl)(4-(difluoromethyl)-2-(2-hydroxypropan-2-yl)oxazol-5-yl)methanone]: 500 to 1000 nM.
Consider `COc1ccc2oc([C@H]3c4nc[nH]c4CCN3C(=O)c3nc(C(F)F)nn3C)nc2c1` [Example 550, (R)-(3-(difluoromethyl)-1-methyl-1H-1,2,4-triazol-5-yl)(4-(5-methoxybenzo[d]oxazol-2-yl)-6,7-dihydro-1H-imidazo[4,5-c]pyridin-5(4H)-yl)methanone], for which the AC50 fell in the range of 1000 to 5000 nM.
Still for that read-out and setting: as for `O=C(c1nnc(-c2cnn(C(F)F)c2)o1)N1CCc2[nH]cnc2[C@H]1c1nc2cccc(F)c2o1` [Example 875, (S)-(5-(1-(difluoromethyl)-1H-pyrazol-4-yl)-1,3,4-oxadiazol-2-yl)(4-(7-fluorobenzo[d]oxazol-2-yl)-6,7-dihydro-1H-imidazo[4,5-c]pyridin-5(4H)-yl)methanone], the figure is no more than 500 nM.
The same measure, in the same setting: next, `CC(O)c1nc(Br)c(C(=O)N2CCc3[nH]cnc3[C@@H]2c2nc3cc(F)ccc3o2)o1` (single isomer, unassigned) [Example 223]: 1000 to 5000 nM; `CC(C)(O)c1nc(C(F)F)c(C(=O)N2CCc3[nH]cnc3[C@H]2c2nc3c(Br)cccc3o2)o1` [Example 431, (S)-(4-(4-bromobenzo[d]oxazol-2-yl)-6,7-dihydro-1H-imidazo[4,5-c]pyridin-5(4H)-yl)(4-(difluoromethyl)-2-(2-hydroxypropan-2-yl)oxazol-5-yl)methanone]: no more than 500 nM.
Same read-out and setting: next, `CC(C)(O)C1CCN(c2ccc3c(C(=O)N4CCc5[nH]cnc5[C@H]4c4nc5cccc(F)c5o4)cnn3c2)CC1` [Example 368, (S)-(4-(7-fluorobenzo[d]oxazol-2-yl)-6,7-dihydro-1H-imidazo[4,5-c]pyridin-5(4H)-yl)(6-(4-(2-hydroxypropan-2-yl)piperidin-1-yl)pyrazolo[1,5-a]pyridin-3-yl)methanone]: 500 to 1000 nM; `O=C(c1ocnc1C(F)F)N1CCc2[nH]cnc2[C@@H]1c1nc2cc(F)cc(F)c2o1` [Example 310, (R)-(4-(5,7-difluorobenzo[d]oxazol-2-yl)-6,7-dihydro-1H-imidazo[4,5-c]pyridin-5(4H)-yl)(4-(difluoromethyl)oxazol-5-yl)methanone]: 500 to 1000 nM.
Regarding `O=C(c1ocnc1C(F)F)N1CCc2[nH]cnc2[C@H]1c1nc2cc(F)c(F)cc2o1` [Example 295, (S)-(4-(5,6-difluorobenzo[d]oxazol-2-yl)-6,7-dihydro-1H-imidazo[4,5-c]pyridin-5(4H)-yl)(4-(difluoromethyl)oxazol-5-yl)methanone], the half-maximal activity concentration (AC50) lay in the range of 500 to 1000 nM.
Still for that read-out and setting: next, `Cc1cccc2oc([C@H]3c4nc[nH]c4CCN3C(=O)c3cnc(C(C)(C)O)o3)nc12` [Example 512, (R)-(2-(2-hydroxypropan-2-yl)oxazol-5-yl)(4-(4-methylbenzo[d]oxazol-2-yl)-6,7-dihydro-1H-imidazo[4,5-c]pyridin-5(4H)-yl)methanone]: 1000 to 5000 nM; “(R)-(4-(deuterium)-2-(2-hydroxypropan-2-yl)oxazol-5-yl)(4-fluoro-4-(5-fluorobenzo[d]oxazol-2-yl)-6,7-dihydro-1H-imidazo[4,5-c]pyridin-5(4H)-yl)methanone [Example 906]”: no less than 5000 nM.
On the same count and under the same terms, next, `Cc1nn(C)cc1-c1nnc(C(=O)N2CCc3[nH]cnc3[C@H]2c2nc3cc(F)ccc3o2)o1` [Example 881, (S)-(5-(1,3-dimethyl-1H-pyrazol-4-yl)-1,3,4-oxadiazol-2-yl)(4-(5-fluorobenzo[d]oxazol-2-yl)-6,7-dihydro-1H-imidazo[4,5-c]pyridin-5(4H)-yl)methanone]: 1000 to 5000 nM.
On the same count and under the same terms, as for `O=C(c1ccnn1CC(F)F)N1CCc2[nH]cnc2[C@@H]1c1nc2ccccc2o1` [Example 836, (R)-(4-(benzo[d]oxazol-2-yl)-6,7-dihydro-1H-imidazo[4,5-c]pyridin-5(4H)-yl)(1-(2,2-difluoroethyl)-1H-pyrazol-5-yl)methanone], the figure is 500 to 1000 nM.
Consider `CC(C)(C)c1ncc(C(=O)N2CCc3[nH]cnc3[C@@H]2c2nc3cc(F)ccc3o2)o1` [Example 22, (R)-(2-(tert-butyl)oxazol-5-yl)(4-(5-fluorobenzo[d]oxazol-2-yl)-6,7-dihydro-1H-imidazo[4,5-c]pyridin-5(4H)-yl)methanone], for which the half-maximal activity concentration (AC50) lay in the range of 1000 to 5000 nM.
Same read-out and setting: next, `Cc1cc(F)ccc1-c1nnc(C(=O)N2CCc3[nH]cnc3[C@@H]2c2nc3cc(F)ccc3o2)o1` [Example 78, (R)-(5-(4-fluoro-2-methylphenyl)-1,3,4-oxadiazol-2-yl)(4-(5-fluorobenzo[d]oxazol-2-yl)-6,7-dihydro-1H-imidazo[4,5-c]pyridin-5(4H)-yl)methanone]: 1000 to 5000 nM.
The same measure, in the same setting: as for `COCc1ccc2c(C(=O)N3CCc4[nH]cnc4[C@H]3c3nc4c(F)cccc4o3)cnn2c1` [Example 275, (S)-(4-(4-fluorobenzo[d]oxazol-2-yl)-6,7-dihydro-1H-imidazo[4,5-c]pyridin-5(4H)-yl)(6-(methoxymethyl)pyrazolo[1,5-a]pyridin-3-yl)methanone], the figure is 500 to 1000 nM.
On the same count and under the same terms, next, `O=C(c1ccnn1C(F)F)N1CCc2[nH]cnc2[C@H]1c1nc2ccc(F)cc2o1` [Example 189, (S)-(1-(difluoromethyl)-1H-pyrazol-5-yl)(4-(6-fluorobenzo[d]oxazol-2-yl)-6,7-dihydro-1H-imidazo[4,5-c]pyridin-5(4H)-yl)methanone]: 500 to 1000 nM; `CN1CCN(c2nc(C(F)F)c(C(=O)N3CCc4[nH]cnc4[C@@H]3c3nc4cccc(F)c4o3)o2)CC1` [Example 618, (R)-(4-(difluoromethyl)-2-(4-methylpiperazin-1-yl)oxazol-5-yl)(4-(7-fluorobenzo[d]oxazol-2-yl)-6,7-dihydro-1H-imidazo[4,5-c]pyridin-5(4H)-yl)methanone]: 500 to 1000 nM; `Cc1ccc2nc([C@@H]3c4nc[nH]c4CCN3C(=O)c3nnc(-c4ncccc4F)o3)oc2c1` [Example 679, (S)-(5-(3-fluoropyridin-2-yl)-1,3,4-oxadiazol-2-yl)(4-(6-methylbenzo[d]oxazol-2-yl)-6,7-dihydro-1H-imidazo[4,5-c]pyridin-5(4H)-yl)methanone]: 500 to 1000 nM.

Staying with this experiment, now noted: A375 cells expressing R408W PAH; 24 hrs with compound, then 20 μM sepiapterin and 800 μM 13C9,15N-Phenylalanine for 4 hours; 13C-Tyrosine by LC-MS; average where tested multiple times.
On to `O=C(c1cnn2cc(N3CCS(=O)(=O)CC3)ccc12)N1CCc2[nH]cnc2C1c1nc2cc(F)ccc2o1` (centres unmarked), for which the AC50 was no less than 5000 nM.
In the case of `O=C1CCCN1CCOc1ccc2c(C(=O)N3CCc4[nH]cnc4C3c3nc4cc(F)ccc4o3)cnn2c1` (centres unmarked), the AC50 was no less than 5000 nM.
Same read-out and setting: as for `COCc1ccc2c(C(=O)N3CCc4[nH]cnc4C3c3nc4ccc(C)cc4o3)cnn2c1` (centres unmarked), the figure is 1000 to 5000 nM; as for `Cn1cnnc1C(=O)N1CCc2[nH]cnc2C1c1nc2c(F)cccc2o1` (centres unmarked), 1000 to 5000 nM.
Same read-out and setting: next, `CN1CCN(c2nnc(C(=O)N3CCc4[nH]cnc4C3c3nc4cc(F)ccc4o3)o2)CC1` (centres unmarked): 1000 to 5000 nM.
On the same count and under the same terms, next, `COCCOc1ccc2c(C(=O)N3CCc4[nH]cnc4C3c3nc4cc(F)ccc4o3)cnn2c1` (centres unmarked): no less than 5000 nM.
